In patent US9873683B2, “P2X4 receptor antagonist” (NIPPON CHEMIPHAR CO., LTD., priority 2013, dated 2018):
Where a name gives a salt, the structure may show the parent alone.

Columns and labels:
[1] = molecular target: human P2X4 receptor (Homo sapiens (Human), UniProt Q99571); assay: P2X4 receptor antagonist activity (ATP-induced intracellular calcium, Fura-2 AM); assay type: cell-based; conditions: 1321N1 cells stably expressing human P2X4 receptor; test substance 15 minutes before addition of ATP; Fura-2 AM F340/F380; read-out: Inhibitory activity IC50
Description: The ATP receptor (human P2X4) was introduced into the 1321N1 cells, and the cells were used as a stable ATP receptor expression system. The P2X4-expressing 1321N1 cells were seeded on a 96-well plate, cultured under the conditions of 37° C. and 5% CO2 for 24 hours, and used for calcium measurement. […] For the measurement, a microplate reader, Fluostar Optima (BMG Labtech), was used. The light emitted from a xenon lamp was passed through 340 nm and 380 nm filters, respectively, and irradiated on the cells, fluorescences of 510 nm, F340 and F380, emitted from the cells were measured, and change of the ratio F340/F380 was used as an index of change of intracellular calcium level. The measurement was performed by adding ATP to each well at a final concentration of 1 μM, and observing the ATP-induced Ca^2+ response over time.
The 1321N1 cells stably expressing human P2X4 receptor were seeded on a 96-well plate, cultured under the conditions of 37° C. and 5% CO2 for 24 hours, and then used for intracellular calcium measurement. Fura-2 AM, which is a calcium fluorescent indicator, was used for the intracellular calcium measurement. […] The ratio of fluorescence values obtained with excitation lights of 340 nm and 380 nm was used as an index of the change of intracellular calcium level, and the inhibitory activity of the test substance was calculated on the basis of the comparison with the value obtained in the absence of the test substance (control).

[2] = test system: mouse neuropathic pain model; assay: Analgesic activity in mouse neuropathic pain model (von Frey filament test); assay type: in vivo; conditions: for pain threshold of diseased limb (von Frey filament test): oral administration of 30 mg/kg, neuropathic pain model mice, versus vehicle administration group; for analgesic activity: oral administration, mouse neuropathic pain model (FIG. 1)
Description: Mouse neuropathic pain model was prepared according to the method of Tozaki-Saitoh H. et al. (Tozaki-Saitoh H., Tsuda M., Miyata H., Ueda K., Kohsaka S. and Inoue K.; P2Y12 Receptors in Spinal Microglia Are Required for Neuropathic Pain after Peripheral Nerve Injury. Neuroscience, 28(19): 4949-4956 (2008)). Under isoflurane anesthesia, back hair of mice was extensively shaved, the shaved parts were wiped with rubbing alcohol, and the mice were fixed in the prone position on a heating pad. The skins were cut and opened along the dorsal median line on the upper and lower sides of the head end of the sacroiliac bone in a length of about 1 cm each, with confirming the head end of the bone with fingers. The left lateral paravertebral muscle was separated in the sacral region, and then the ligament was separated. The sacroiliae rim and the upper part thereof were cut and opened along the pyramid, and the transverse process of the first sacral vertebra (S1) was confirmed. The transverse process of S1 was removed, the fourth lumber nerve (L4) running just under the transverse process was confirmed and cut, and the operative wound was sutured.
The pain threshold (paw withdrawal threshold (g)) was measured by stimulating the soles of mice with each of seven von Frey filaments (Stoelting Co., TOUCH-TEST SENSORY EVALUATOR) that gave different stimulation strengths, and determining presence or absence of withdrawal response. The 50% threshold was calculated according to the up down method with reference to the method of Chaplan et al. (Chaplan S R, Bach F W, Pogrel J W, Chung J M, Yaksh T L: Quantitative assessment of tactile allodynia in the rat paw, J. Neurosci. Method, 53:55-63 (1994)).
For evaluation of efficacy, each of the compounds described in Examples 21 and 42 was orally administered to the neuropathic pain model mice with a sonde for oral administration in mice, and effect thereof on the pain threshold measured in the von Frey filament test was observed.

Chain of human P2X4 receptor (Q99571 whole entry): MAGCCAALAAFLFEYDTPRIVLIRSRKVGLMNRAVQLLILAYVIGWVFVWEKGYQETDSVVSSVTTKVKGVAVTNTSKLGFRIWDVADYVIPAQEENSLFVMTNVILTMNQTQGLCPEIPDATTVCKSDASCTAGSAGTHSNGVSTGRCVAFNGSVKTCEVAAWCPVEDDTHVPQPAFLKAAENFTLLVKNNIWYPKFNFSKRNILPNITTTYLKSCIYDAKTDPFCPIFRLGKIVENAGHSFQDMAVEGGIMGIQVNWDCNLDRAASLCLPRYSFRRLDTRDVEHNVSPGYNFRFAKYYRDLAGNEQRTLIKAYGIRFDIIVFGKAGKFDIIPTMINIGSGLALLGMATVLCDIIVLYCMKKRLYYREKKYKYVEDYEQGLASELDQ

`COc1cccc(CCc2nccn2-c2ccc(N3C(=O)CC(=O)Nc4c3ccc3ccccc43)cc2)c1.Cl` [Example 42, 5-[4-[2-(3-Methoxyphenethyl)-1H-imidazol-1-yl]phenyl]-1H-naphtho[1,2-b][1,4]diazepine-2,4(3H,5H)-dione hydrochloride] was tested, and the IC50 [1] was 0.092 µM, the “pain threshold of diseased limb (von Frey filament test)” value [2] was “increased the pain threshold of diseased limb” and the analgesic activity [2] was “superior analgesic activity”.
With `Cl.O=C1CC(=O)N(c2ccc(-n3ccnc3CCc3ccccc3)cc2)c2ccc3ccccc3c2N1` [Example 21, 5-[4-(2-Phenethyl-1H-imidazol-1-yl)phenyl]-1H-naphtho[1,2-b][1,4]diazepine-2,4(3H,5H)-dione hydrochloride] the IC50 [1] was 0.078 µM, the “pain threshold of diseased limb (von Frey filament test)” value [2] was “increased the pain threshold of diseased limb” and the analgesic activity [2] was “superior analgesic activity”.
`COc1ccccc1Cc1nnnn1-c1ccc(N2C(=O)CC(=O)Nc3c2ccc2ccccc32)cc1` [Example 1, 5-[4-[5-(2-Methoxybenzyl)-1H-tetrazol-1-yl]phenyl]-1H-naphtho[1,2-b][1,4]diazepine-2,4(3H,5H)-dione] gave an IC50 [1] of 0.025 µM.
With `O=C1CC(=O)N(c2ccc(-c3nccn3Cc3ccc(Cl)cc3)cc2)c2ccc3ccccc3c2N1` [Example 23, 5-[4-[1-(4-Chlorobenzyl)-1H-imidazol-2-yl]phenyl]-1H-naphtho[1,2-b][1,4]diazepine-2,4(3H,5H)-dione hydrochloride] the IC50 [1] was 0.3 µM.
With `CC(C)(Cc1nnnn1-c1ccc(N2C(=O)CC(=O)Nc3c2ccc2ccccc32)cc1)c1ccccn1` [Example 69, 5-[4-[5-[2-Methyl-2-(pyridin-2-yl)propyl]-1H-tetrazol-1-yl]phenyl]-1H-naphtho[1,2-b][1,4]diazepine-2,4(3H,5H)-dione hydrochloride] the IC50 [1] was 5.4 µM.
`O=C1CC(=O)N(c2ccc(-n3ccnc3CCc3ccccc3F)cc2)c2ccc3c(c2N1)CCC3` [Example 67, 5-[4-[2-(2-Fluorophenethyl)-1H-imidazol-1-yl]phenyl]-5,8,9,10-tetrahydroindeno[4,5-b][1,4]diazepine-2,4(1H,3H)-dione] was tested, and the IC50 [1] was 0.053 µM.
For `O=C1CC(=O)N(c2ccc(-c3nccn3CCc3ccccc3)c(O)c2)c2ccc3ccccc3c2N1` [Example 65, 5-[3-Hydroxy-4-(1-phenethyl-1H-imidazol-2-yl)-phenyl]-1H-naphtho[1,2-b][1,4]diazepine-2,4(3H,5H)-dione], the IC50 [1] was 0.13 µM.
For `O=C1CN=C(c2ccc(-n3nnnc3CCc3ccccc3)cc2)c2ccc3ccccc3c2N1` [Example 40, 5-[4-(5-Phenethyl-1H-tetrazol-1-yl)phenyl]-1H-naphtho[1,2-e][1,4]diazepin-2(3H)-one], the IC50 [1] was 0.63 µM.
`O=C1CC(=O)N(c2ccc(-n3ccnc3CCc3ccco3)cc2)c2ccc3ccccc3c2N1` [Example 66, 5-[4-[2-[2-(Furan-2-yl)ethyl]-H-imidazol-1-yl]-phenyl]-1H-naphtho[1,2-b][1,4]diazepine-2,4(3H,5H)-dione hydrochloride] gave an IC50 [1] of 0.55 µM.
Compound `Cc1cccc(CCc2nnnn2-c2ccc(N3C(=O)CC(=O)Nc4c3ccc3ccccc43)cc2)n1` [Example 30, 5-[4-[5-[2-(6-Methylpyridin-2-ylethyl)-1H-tetrazol-1-yl]-phenyl]-1H-naphtho[1,2-b][1,4]diazepine-2,4(3H,5H)-dione hydrochloride] has an IC50 [1] of 0.27 µM.
Compound `Cc1cccc(C)c1CCc1nccn1-c1ccc(N2C(=O)CC(=O)Nc3c2ccc2ccccc32)cc1` [Example 37, 5-[4-[2-(2,6-Dimethylphenylethyl)-1H-imidazol-1-yl]phenyl]-1H-naphtho[1,2-b][1,4]diazepine-2,4(3H,5H)-dione hydrochloride] has an IC50 [1] of 0.079 µM.
